# Measured values taken from PubChem BioAssay (NCI).
# Values joined by “and” are separate entries in the source; they are usually repeats but may differ in a detail not shown here. Equal values may be shown once.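 Assay format: 96-well plates, 48-hour exposure. At the GI50, growth is halved. At the TGI there is no net growth.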
# What was measured:
# Assay in all cases: NCI tumour cell line growth inhibition, 48 h
# LXFL 529 NSCLC = tested on: LXFL 529 NSCLC
# DLD-1 colon = tested on: DLD-1 colon
# RXF-631 renal = tested on: RXF-631 renal
# MDA-N = tested on: MDA-N
# HS 578T breast = tested on: HS 578T breast
# SN12K1 renal = tested on: SN12K1 renal
# MCF7 breast = tested on: MCF7 breast
# P388/ADR leukemia = tested on: P388/ADR leukemia
# T-47D breast = tested on: T-47D breast
# BT-549 breast = tested on: BT-549 breast
# P388 leukemia = tested on: P388 leukemia
# DU-145 prostate = tested on: DU-145 prostate
Compound,TGI (LXFL 529 NSCLC),TGI (DLD-1 colon),TGI (RXF-631 renal),also measured
COc1ccc(NC(=O)C2=CC(=O)c3ccc(O)cc3C2=O)c(OC)c1,> 100 µM,> 100 µM,> 100 µM,
O=C(O)c1ccccc1C1c2ccc(Cl)cc2Oc2cc(Cl)ccc21,> 100 µM,> 100 µM,> 100 µM,
Cc1cc2c(C)nn(Cc3ccccc3Cl)c2c(C#N)c1C,> 100 µM,> 100 µM,> 100 µM,
C/C(CC(=O)Nc1ccc([N+](=O)[O-])cc1)=N\Nc1ccc([N+](=O)[O-])cc1[N+](=O)[O-],> 100 µM,> 100 µM,> 100 µM,
COc1cc([C@@H]2c3cc4c(cc3[C@@H](NC(=O)c3ccc(OC(C)=O)cc3)C3COC(=O)[C@@H]32)OCO4)cc(OC)c1O (stereo partly drawn),44.2 µM,26 µM,17.3 µM,
COC1C(C)OC(OC2CC(C)(O)Cc3cc4c(c(O)c32)C(=O)c2c(O)cc3c(c2C4=O)OC2OC3(C)C(O)C(N(C)C)C2O)C(OC)C1(C)OC (stereo not drawn),2.84 µM,5.12 µM and 3.91 µM,7.14 µM,TGI (MDA-N): 0.00187 µM; TGI (HS 578T breast): 0.000563 µM; GI50 (DLD-1 colon): 0.183 µM; TGI (SN12K1 renal): 0.06 µM; TGI (MCF7 breast): 0.413 µM; TGI (P388/ADR leukemia): 7.1 µM; TGI (T-47D breast): 0.000313 µM; TGI (BT-549 breast): 0.00655 µM; TGI (P388 leukemia): 0.51 µM
C[C@H]1CCC2C(CN3CCCCC3)C(=O)OC2[C@]2(C)C(=O)CC(N3CCCCC3)C12O (stereo partly drawn),,16 µM,3.71 µM,
COC(=O)c1cc2c(nc1C)-c1ccccc1OS2(=O)=O,> 100 µM,> 100 µM,> 100 µM,
O=C(NC(Cc1ccccc1)C(=O)CCl)OCc1ccccc1 (stereo not drawn),13.9 µM,21.5 µM,,GI50 (HS 578T breast): 6.23 µM; TGI (HS 578T breast): 36 µM; GI50 (MCF7 breast): 2.96 µM; TGI (MCF7 breast): 13.5 µM; GI50 (DU-145 prostate): 10.9 µM; TGI (DU-145 prostate): 22.9 µM; GI50 (T-47D breast): 3.37 µM; TGI (T-47D breast): 16.7 µM; GI50 (BT-549 breast): 2.31 µM; TGI (BT-549 breast): 6 µM
COC(=O)CC1NC(=O)C1C(C)(OC)OC (stereo not drawn),> 100 µM,> 100 µM,> 100 µM,
O=C(CC(=O)N1N=C(c2ccccc2)C(N=Nc2ccccc2Cl)C1=O)Nc1ccccc1Cl (stereo not drawn),> 100 µM,> 100 µM,> 100 µM,
Cc1cc(N(CCC#N)CCC#N)ccc1CC1N=C(c2ccccc2)OC1=O (stereo not drawn),> 100 µM,> 100 µM,> 100 µM,
NNC(=S)NN/C=C(\C=Nc1ccccc1)[N+](=O)[O-],> 100 µM,> 100 µM,> 100 µM,
COc1cc(=O)oc(/C=C/CO)c1C,> 100 µM,> 100 µM,> 100 µM,
C=CCn1c(=O)c(C(=O)NC(=O)OCC)cn(C2CCCCC2)c1=O,> 100 µM,> 100 µM,> 100 µM,
CC(O)c1ccc(C(O)/C(=N\NC(=O)c2ccncc2)c2nc3ccc([N+](=O)[O-])cc3[nH]c2=O)cc1 (stereo not drawn),> 100 µM,> 100 µM,> 100 µM,
Cc1cc(Cl)ccc1Nc1nc2c(s1)C(=O)c1ccccc1C2=O,12.8 µM,12.5 µM,20.2 µM,TGI (HS 578T breast): 5.79 µM; TGI (MCF7 breast): 3.72 µM; TGI (DU-145 prostate): 3.04 µM; TGI (T-47D breast): 7.06 µM; TGI (BT-549 breast): 2.9 µM
COC(=O)Cc1nn2c(nc1=O)sc1ccc3ccccc3c12,> 100 µM,> 100 µM,> 100 µM,
CCOC(=O)Cn1c(=O)[nH]c(=O)c2[nH]cnc21,> 100 µM,> 100 µM,> 100 µM,
COc1ccc(C2NC3=C(CCCC3)N2)cc1,> 100 µM,> 100 µM,,
Cc1ccc(S(=O)(=O)OC2CSSCC2OS(=O)(=O)c2ccc(C)cc2)cc1 (stereo not drawn),23.6 µM,24.7 µM,26.5 µM,
N/C(=N/N=C/c1cccc(F)c1)NO,> 100 µM,> 100 µM,> 100 µM,
C1C[S][Ge]2([S]CCS1)[S]CCSCC[S]2,> 100 µM,> 100 µM,,GI50 (LXFL 529 NSCLC): > 100 µM; GI50 (DLD-1 colon): > 100 µM
COc1cc(CC(=O)c2cc3c(cc2-c2ccccc2)OCO3)cc(OC)c1OC,> 100 µM,> 100 µM,,
